In assay [1] the test system is esophageal tumor SGA-73 cells. Put plainly: TA1 mouse model of human esophageal cancer (SGA-73 cells s.c.), tumor growth. Type of assay: in vivo, TA1 mice. The settings on record: 31st day, after 30 days treatment; AY/NY 0.3 ml per day oral, CTX 30 mg/kg per day s.c. Here is the method:
(§1) The oral composition comprising 10^8 cells per ml of activated and conditioned yeast cells of the strain Saccharomyces cerevisiae Hansen strain AS2.375 was prepared by the methods described in Section 5.1 and subsections therein.
The mice injected with tumor cells were kept for 3 days and then divided into 4 experimental groups of ten mice per group and one control group. The four experimental groups were triplicated (i.e., using a total of 120 mice in the experimental groups).
The mice received the biological compositions, untreated yeast cells, CTX or saline on the same day as the tumor cells were transplanted. The mice in group CK2 also started receiving saline on the same day as the other four groups. The biological compositions, untreated yeast cells and saline were administered orally by a feeding tube and the CTX by subcutaneous injection for 30 consecutive days.

Assay [2] deals with esophageal tumor SGA-73 cells. The experiment in a line: TA1 mouse model of human esophageal cancer (SGA-73 cells), survival over 6 months. Type of assay: in vivo, TA1 mice. The settings on record: for Number of live animals remaining in the groups after 30 days of treatment: 30 mice per group. Here is the method: The survival time of mice after tumor injection and treatment was studied.
as §1
The animals were prepared in a similar manner as described in Section 8.1.
The mice injected with tumor cells were kept for 3 days and then divided into 4 experimental groups of ten mice per group and one control group. The four experimental groups were triplicated (i.e., using a total of 120 mice in the experimental groups). In group 2AY, the mice received 0.5 ml of the biological composition once per day. In group 2NY, the mice received 0.5 ml of the untreated yeast cells once per day. In group 2CTX, the mice were injected subcutaneously with 45 mg of cyclophosphamide (CTX) per kg body weight per day. In group 2CK1, the mice received 0.5 ml of physiological saline once per day.
The mice received the biological compositions, untreated yeast cells, CTX or saline on the same day as the tumor cells were transplanted. The mice in group 2CK2 also started receiving saline on the same day as the other four groups. The biological compositions, untreated yeast cells and saline were administered orally by a feeding tube and the CTX by subcutaneous injection for 30 consecutive days. The mice were observed over 6 months from the day of tumor inoculation and survival was recorded. The weight of the mice and the weight of the tumor were determined by standard techniques.

Assay [3] deals with esophageal cancer. The experiment in a line: Wistar rat model of human esophageal cancer (MBNA-induced), tumor growth. Type of assay: in vivo, Wistar rats. As to conditions: 31st day, after 30 days treatment; AY/NY 1.5 ml per day oral, VDS 3.0 mg/kg i.v. once a week. Here is the method: as §1
The four experimental groups were triplicated (i.e., using a total of 120 rats in the experimental groups).

In assay [4] the test system is esophageal cancer. Put plainly: Wistar rat model of esophageal cancer, survival over 6 months. Type of assay: in vivo, Wistar rats. As to conditions: for Number of live animals remaining in the groups after 30 days of treatment: 30 rats per group. As to the method:
The following example illustrates the benefit of a biological composition of the invention in a Wistar rat model of original position engrafted human esophageal cancer. The survival time of rats after tumor injection and treatment was studied.
as §1
The animals were prepared in a similar manner as described in Section 6.1.
The rats that were fed with MBNA for 30 days were divided into 4 experimental groups of ten rats per group and one control group. The four experimental groups were triplicated (i.e., using a total of 120 rats in the experimental groups). In group 2AY, the rats received 1.5 ml of the biological composition in two doses per day. In group 2NY, the rats received 1.5 ml of the untreated yeast cells in two doses per day. […] In group 2CK1, the rats received 1.5 ml of physiological saline in two doses per day.
The rats received the biological compositions, untreated yeast cells, VDS or saline on the same day as the tumor cells were transplanted. The rats in group 2CK2 also started receiving saline on the same day as the other four groups. […] The rats were observed over 6 months from the day of tumor inoculation and survival was recorded. The weight of the rats, the weight of the esophagus, and the weight of the tumor were determined by standard techniques.

Setting [5] is: 0 month after cessation of treatment.
Where [6] appears, read: 1 month after cessation of treatment.
Where [7] appears, read: 2 months after cessation of treatment.
[8] abbreviates: 3 months after cessation of treatment.
The mark [9] stands for this setting: 4 months after cessation of treatment.
Setting [10] is: 5 months after cessation of treatment.
[11] abbreviates: 6 months after cessation of treatment.
Setting [12] is: mice that survived the 6 month observation.
Setting [13] is: rats that survived the 6 month observation.

Turning to `O=P1(N(CCCl)CCCl)NCCCO1` (stereo not shown) [CTX, cyclophosphamide], the “mean weight of mice and standard deviation” value in assay [1] is given as 18.2 ± 2.8 g; in assay [2] (setting [12]) it was “all animals dead”. The “mean weight of tumor nodules and standard deviation” value is recorded as 384 ± 31 mg in assay [1] and “all animals dead” in assay [2] (setting [12]). Also, the “Number of live animals remaining in the groups after 30 days of treatment” value (from here on “Number of live animals remaining”) was 30 in assay [2] (setting [5]); 30 in assay [2] (setting [6]); 28 in assay [2] (setting [7]); 22 in assay [2] (setting [8]); 18 in assay [2] (setting [9]); 0 in assay [2] (setting [10]). In assay [2] (setting [11]), the “Number of live animals remaining” value is listed as 0. In addition, the “survival time of mice” value in assay [2] (2AY/2NY 0.5 ml per day oral, 2CTX 45 mg/kg per day s.c.) is given as “all died after four months”.

In the case of `CC[C@]1(O)C[C@@H]2CN(CCc3c([nH]c4ccccc34)[C@@](C(=O)OC)(c3cc4c(cc3OC)N(C)[C@H]3[C@@](O)(C(N)=O)[C@H](O)[C@]5(CC)C=CCN6CC[C@]43[C@@H]65)C2)C1` [VDS, vindesine], the “mean weight of rats and standard deviation” value is on record as 173 ± 15 g in the assay on esophageal cancer [3] and “all animals dead” in the assay on esophageal cancer [4] (setting [13]). Further, the “mean weight of tumor nodules and standard deviation” value in the assay with esophageal cancer [3] was 281 ± 31 mg; in the assay with esophageal cancer [4] (setting [13]), “all animals dead”. The “Number of live animals remaining” value is on record as 30 with esophageal cancer [4] (setting [5]); 30 with esophageal cancer [4] (setting [6]); 30 in the assay on esophageal cancer [4] (setting [7]); 30 with esophageal cancer [4] (setting [8]); 21 in the assay with esophageal cancer [4] (setting [9]); 3 in the assay with esophageal cancer [4] (setting [10]). In addition, in the assay on esophageal cancer [4] (setting [11]), the “Number of live animals remaining” value is given as 0. The “survival time of rats” value in the assay with esophageal cancer [4] (2AY/2NY 1.5 ml per day oral, 2VDS 3.0 mg/kg per week for four weeks) is on record as “all died after five months”. Moreover, the “mean weight of esophagus and standard deviation” value in the assay on esophageal cancer [4] (setting [13]) is recorded as “all animals dead”.

The record behind these values is patent US20040253266A1, “Biological compositions and methods for treatment of esophageal cancer” (priority 2003, published 2004).
